Experimental data published in patent US8822449B2, “Substituted aminoindanes and analogs thereof, and the pharmaceutical use thereof” (Sanofi, priority 2008, dated 2014).

The compounds below were run against T1, sodium-proton exchanger of subtype 3 (NHE3) (Homo sapiens, UniProt P48764) (assay: Recovery of intracellular pH (pHi) after acidification in LAP1 cells stably expressing NHE3 (BCECF fluorescence, FLIPR)). Details: Activity range (inhibitory effect on NHE3), LAP1 cells stably expressing NHE3; pH recovery after acidification; range 1 is % inhibition at 10 μM.
T1 construct: expressed in transfected cells
T1 sequence (P48764 26-834): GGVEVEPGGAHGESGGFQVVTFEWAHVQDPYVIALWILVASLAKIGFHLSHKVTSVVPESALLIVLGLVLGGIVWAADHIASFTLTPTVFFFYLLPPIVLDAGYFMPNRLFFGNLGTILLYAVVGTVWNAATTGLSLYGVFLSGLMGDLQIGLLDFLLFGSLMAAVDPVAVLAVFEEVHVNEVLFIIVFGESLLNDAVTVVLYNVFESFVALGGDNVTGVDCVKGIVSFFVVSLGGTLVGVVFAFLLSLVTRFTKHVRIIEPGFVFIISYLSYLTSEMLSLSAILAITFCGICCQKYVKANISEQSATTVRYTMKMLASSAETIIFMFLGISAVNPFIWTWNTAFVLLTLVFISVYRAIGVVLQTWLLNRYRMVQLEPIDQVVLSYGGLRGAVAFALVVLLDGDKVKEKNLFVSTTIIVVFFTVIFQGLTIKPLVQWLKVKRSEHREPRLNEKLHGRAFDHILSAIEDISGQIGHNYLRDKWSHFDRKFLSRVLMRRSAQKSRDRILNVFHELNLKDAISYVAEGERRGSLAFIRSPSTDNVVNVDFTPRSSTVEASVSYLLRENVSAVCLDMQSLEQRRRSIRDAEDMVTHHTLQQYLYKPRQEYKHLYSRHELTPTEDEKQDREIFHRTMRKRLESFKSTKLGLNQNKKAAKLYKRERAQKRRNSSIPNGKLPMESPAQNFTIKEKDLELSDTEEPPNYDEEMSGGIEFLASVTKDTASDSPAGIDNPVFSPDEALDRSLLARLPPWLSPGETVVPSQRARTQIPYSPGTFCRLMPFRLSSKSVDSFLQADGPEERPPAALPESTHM
Assay type: cell-based

Row | Structure (SMILES) | IC50 [nM]
1 | CCN(CC)[C@@H]1Cc2ccccc2[C@H]1Oc1ccc(N2CCNCC2)cc1 (racemic) [Example 627, Diethyl-[rac-trans-(1,2)-1-(4-piperazin-1-ylphenoxy)indan-2-yl]amine] | 1000 to 10000

Same assay, conditions: LAP1 cells stably expressing NHE3; pH recovery after acidification; range 1 is % inhibition at 10 μM; read-out: Activity range (inhibitory effect on NHE3)

Row | Structure (SMILES) | IC50 [nM] | inhibition at 10 µM [%]
2 | NCC1CCN([C@@H]2Cc3ccccc3[C@H]2Oc2cccc(C(N)=O)c2)C1 (mixture of isomers) [Example 414, 3-[rac-trans-(1,2)-2-(3-aminomethylpyrrolidin-1-yl)indan-1-yloxy]benzamide] | 1000 to 10000 | –
3 | N[C@H]1CCCN([C@H]2CCc3ccccc3[C@@H]2Oc2ccc3oc(=O)sc3c2)C1 (racemic) [Example 580, 5-[rac-trans-(1,2)-2-((S)-3-aminopiperidin-1-yl)-1,2,3,4-tetrahydronaphthalen-1-yloxy]benzo[1,3]oxathiol-2-one] | – | 20 to 50
4 | N[C@@H]1CCCN([C@H]2CCc3ccccc3[C@@H]2Oc2ccccc2N2CCOCC2)C1 (racemic) [Example 48, (R)-1-[rac-trans-(1,2)-1-(2-morpholin-4-ylphenoxy)-1,2,3,4-tetrahydronaphthalen-2-yl]piperidin-3-ylamine] | – | 20 to 50
5 | CS(=O)(=O)c1ccc(O[C@@H]2c3ccccc3C[C@@H]2n2ccnc2)cc1 (racemic) [Example 261, 1-[rac-cis-(1,2)-1-(4-methanesulfonylphenoxy)indan-2-yl]-1H-imidazole] | – | 20 to 50
6 | CC(=O)Nc1cccc(O[C@@H]2c3ccccc3C[C@H]2N2CCC(CN)C2)c1 (mixture of isomers) [Example 686, N-{3-[rac-trans-(1,2)-2-(3-aminomethylpyrrolidin-1-yl)indan-1-yloxy]phenyl}acetamide] | 1000 to 10000 | –
7 | CC(=O)Nc1cccc(O[C@H]2c3ccccc3C[C@@H]2N2CCSCC2)c1 (racemic) [Example 643, N-[3-(rac-trans-(1,2)-2-thiomorpholin-4-ylindan-1-yloxy)phenyl]acetamide] | – | 20 to 50
8 | CN(C1CCNCC1)[C@@H]1Cc2ccccc2[C@H]1Oc1ccc(N2CCNCC2)cc1 (racemic) [Example 630, methyl-[rac-trans-(1,2)-1-(4-piperazin-1-ylphenoxy)indan-2-yl]piperidin-4-ylamine] | 1000 to 10000 | –
9 | O=S(=O)(NCC(F)(F)F)c1ccc(O[C@@H]2c3ccccc3C[C@H]2N2CCCC2)cc1 (racemic) [Example 469, 4-(rac-trans-(1,2)-2-pyrrolidin-1-ylindan-1-yloxy)-N-(2,2,2-trifluoroethyl)benzenesulfonamide] | 1000 to 10000 | –
10 | N[C@@H]1CCCN([C@H]2CCc3ccccc3[C@@H]2Oc2ccc3ccncc3c2)C1 (racemic) [Example 84, (R)-1-[rac-trans-(1,2)-1-(isoquinolin-7-yloxy)-1,2,3,4-tetrahydronaphthalen-2-yl]piperidin-3-ylamine] | < 1000 | –
11 | NS(=O)(=O)c1ccc(OC2c3ccccc3CC2N2CCCC2)c(Cl)c1Cl (racemic) [Example 357, 2,3-dichloro-4-(rac-trans-(1,2)-2-pyrrolidin-1-ylindan-1-yloxy)benzenesulfonamide] | < 1000 | –
12 | N[C@@H]1CCCN([C@@H]2Cc3ccccc3[C@H]2Oc2ccc3oc(=O)sc3c2)C1 (racemic) [Example 579, 5-[rac-trans-(1,2)-2-((R)-3-aminopiperidin-1-yl)indan-1-yloxy]benzo[1,3]oxathiol-2-one] | 1000 to 10000 | –
13 | N[C@H]1CCCN([C@H]2CCc3ccccc3[C@@H]2Oc2ccccc2OC(F)(F)F)C1 (racemic) [Example 159, (S)-1-[rac-trans-(1,2)-1-(2-trifluoromethoxyphenoxy)-1,2,3,4-tetrahydronaphthalen-2-yl]piperidin-3-ylamine] | – | 20 to 50
14 | Cc1ccc(O[C@H]2c3ccccc3CC[C@@H]2N2CCC[C@@H](N)C2)cc1Cl (racemic) [Example 53, (R)-1-[rac-trans-(1,2)-1-(3-chloro-4-methylphenoxy)-1,2,3,4-tetrahydronaphthalen-2-yl]piperidin-3-ylamine] | – | 20 to 50
15 | CS(=O)(=O)c1ccc(O[C@H]2c3ccccc3C[C@@H]2N2CCCC(NCC(F)(F)F)C2)cc1 (stereo partly drawn) [Example 219, {(R)-1-[trans-(1S,2S)-1-(4-methanesulfonylphenoxy)indan-2-yl]piperidin-3-yl}-(2,2,2-trifluoroethyl)amine] | – | 20 to 50
16 | NS(=O)(=O)c1ccc(O[C@H]2c3ccccc3C[C@@H]2N2CCCC2)c(Cl)c1 (racemic) [Example 444, 3-chloro-4-(rac-trans-(1,2)-2-pyrrolidin-1-ylindan-1-yloxy)benzenesulfonamide] | < 1000 | –

Further lines, results first:

Row | IC50 [nM] | inhibition at 10 µM [%] | Structure (SMILES)
17 | 1000 to 10000 | – | Cc1nnnn1-c1ccc(O[C@H]2c3cc(Cl)cc(Cl)c3C[C@@H]2N2CC[C@@H](O)C2)cc1 [Example 112, (R)-1-{(1S,2S)-4,6-dichloro-1-[4-(5-methyltetrazol-1-yl)phenoxy]indan-2-yl}pyrrolidin-3-ol]
18 | 1000 to 10000 | – | O=C1CCC(=O)N1c1cccc(O[C@H]2c3cc(Cl)cc(Cl)c3C[C@@H]2N2CC[C@@H](O)C2)c1 [Example 316, 1-{3-[(1S,2S)-4,6-dichloro-2-((R)-3-hydroxypyrrolidin-1-yl)indan-1-yloxy]phenyl}pyrrolidine-2,5-dione]
19 | < 1000 | – | Cc1c(O[C@H]2c3cc(Cl)cc(F)c3C[C@@H]2N2CC[C@@H](O)C2)ccc(-n2c(C)nnc2C)c1C [Example 141, (R)-1-{trans-(1S,2S)-6-chloro-1-[4-(3,5-dimethyl-[1,2,4]triazol-4-yl)-2,3-dimethylphenoxy]-4-fluoroindan-2-yl}pyrrolidin-3-ol]
20 | < 1000 | – | Cc1nnc(C)n1-c1ccc(O[C@H]2c3cc(Cl)cc(Cl)c3C[C@@H]2N2CC[C@H](O)C2)c(F)c1 [Example 200, (S)-1-{(1S,2S)-4,6-dichloro-1-[4-(3,5-dimethyl-[1,2,4]triazol-4-yl)-2-fluorophenoxy]indan-2-yl}pyrrolidin-3-ol]
21 | < 1000 | – | Cc1nnc(C)n1-c1ccc(O[C@H]2c3ccccc3C[C@@H]2N2CCCC2)c(Cl)c1 [Example 491, 4-[3-chloro-4-(trans-(1S,2S)-2-pyrrolidin-1-ylindan-1-yloxy)phenyl]-3,5-dimethyl-4H-[1,2,4]triazole]
22 | < 1000 | – | C[C@H]1CN([C@H]2Cc3c(Cl)cc(Cl)cc3[C@@H]2Oc2ccc(S(C)(=O)=O)cc2)CCN1 [Example 197, (S)-1-[trans-(1S,2S)-4,6-dichloro-1-(4-methanesulfonylphenoxy)indan-2-yl]-3-methylpiperazine]
23 | 1000 to 10000 | – | O[C@@H]1CCN([C@H]2Cc3c(Cl)cc(Cl)cc3[C@@H]2Oc2ccc(-n3ccnc3)cc2)C1 [Example 728, (R)-1-[trans-(1S,2S)-4,6-Dichloro-1-(4-imidazol-1-yl-phenoxy)-indan-2-yl]-pyrrolidin-3-ol]
24 | – | 20 to 50 | Fc1ccc(O[C@H]2c3cc(Cl)cc(Cl)c3C[C@@H]2N2CCC2)c2ncccc12 [Example 591, 8-((1S,2S)-2-azetidin-1-yl-4,6-dichloroindan-1-yloxy)-5-fluoroquinoline]
25 | – | 20 to 50 | CS(=O)(=O)c1ccc(O[C@H]2c3cc(Cl)cc(Cl)c3C[C@@H]2N2CCN(C3CC3)CC2)cc1 [Example 351, 1-Cyclopropyl-4-[trans-(1S,2S)-4,6-dichloro-1-(4-methanesulfonylphenoxy)indan-2-yl]piperazine]
26 | < 1000 | – | CC(=O)Nc1cccc(O[C@H]2c3cc(Cl)cc(Cl)c3C[C@@H]2N2CCNCC2)c1 [Example 665, N-[3-(trans-(1S,2S)-4,6-dichloro-2-piperazin-1-ylindan-1-yloxy)phenyl]acetamide]
27 | 1000 to 10000 | – | O=C1CCC(=O)N1c1ccc(Cl)c(O[C@H]2c3cc(Cl)cc(Cl)c3C[C@@H]2N2CC[C@@H](O)C2)c1 [Example 337, 1-{4-chloro-3-[(1S,2S)-4,6-dichloro-2-((R)-3-hydroxypyrrolidin-1-yl)indan-1-yloxy]phenyl}pyrrolidine-2,5-dione]
28 | 1000 to 10000 | – | Cc1nc(C(C)(C)C)cn1-c1ccc(O[C@H]2c3cc(Cl)cc(Cl)c3C[C@@H]2N2CC[C@@H](O)C2)c(F)c1 [Example 729, (R)-1-{trans-(1S,2S)-1-[4-(4-tert-Butyl-2-methyl-imidazol-1-yl)-2-fluoro-phenoxy]-4,6-dichloro-indan-2-yl}-pyrrolidin-3-ol]
29 | – | 20 to 50 | CS(=O)(=O)c1ccccc1O[C@H]1c2cc(Cl)cc(Cl)c2C[C@@H]1N1CCC1 [Example 245, 1-[(1S,2S)-4,6-dichloro-1-(2-methanesulfonylphenoxy)indan-2-yl]azetidine]
30 | 1000 to 10000 | – | NC(=O)Cc1c[nH]c2ccc(O[C@@H]3c4ccccc4C[C@H]3N3CCC(N)C3)cc12 (mixture of isomers) [Example 387, 2-{5-[rac-trans-(1,2)-2-(3-aminopyrrolidin-1-yl)indan-1-yloxy]-1H-indol-3-yl}acetamide]
31 | < 1000 | – | N#Cc1ccc(O[C@H]2c3cc(Cl)cc(Cl)c3C[C@@H]2N2CCC[C@@H](N)C2)c(F)c1 [Example 479, 4-[(1S,2S)-2-((R)-3-aminopiperidin-1-yl)-4,6-dichloroindan-1-yloxy]-3-fluorobenzonitrile]
